Data from patent US9616062B2, “Cyclin dependent kinase inhibitors and methods of use” (priority 2009, dated 2017).

Columns and labels:
[1] = test system: C3-TAg mice (RB-deficient breast cancer); assay: C3-Tag transgenic mouse model of basal-like breast cancer, tumor volume; format: in vivo; details: daily administration, 100 mg/kg daily in standard chow
Experimental: FIG. 9: CDK4/6 inhibition potentiates the efficacy of chemotherapy in mouse model of RB-deficient breast cancer. […] Data are % change in tumor volume and represents the mean of at least 15 animals per cohort +/−SEM
FIG. 10: CDK4/6 inhibition potentiates the efficacy of chemotherapy in mouse model of RB-deficient breast cancer. Mice were treated every 7 days for three weeks with carboplatin (90 mg/kg IP) alone (darkly shaded squares) or in combination with PD0332991 (150 mg/kg PO; lightly shaded squares). Data are % change in tumor volume and represents the mean of at least 15 animals per cohort +/−SEM.
The C3-TAg mice are a model of basal-like breast cancer. […] The MMTV-c-neu model expresses c-neu (the mouse ortholog of human HER2) driven by the mouse mammary tumor virus (MMTV) promoter and is a model of HER2+ breast cancer. When tumors were noted to be ˜0.2 cm^2 in size, animals were treated as described and tumor response assessed by daily caliper measurements.
The effects of CDK4/6 inhibition in the C3-Tag transgenic mouse model of basal-like breast cancer were also evaluated. […] Tumor volume was measured by caliper weekly. Tumor volume was calculated using the following formula: Volume=[(width)^2×length]/2. […] Treatments were administered on days 0, 7 and 14 and tumor volumes were measured weekly, until the mice died or were euthanized due to toxicity or tumor burden.

[2] = test system: germinal center formation; assay: Germinal center formation in mice (Ki67 immunohistochemistry); format: in vivo, mouse; details: 150 mg/kg by oral gavage
Experimental: Mice were treated with PD0332991 (150 mg/kg by oral gavage). Germinal center formation was assessed by Ki67 immunohistochemistry.
Acute, pharmacologic inhibition of CDK4/6 suppresses lymphocyte proliferation with the most pronounced effect on memory T cell homeostatic proliferation and germinal center formation in mice. To determine whether inhibiting CDK4/6 affects memory cell generation and maintenance, mice were treated with selective CDK4/6 inhibitors, PD 0332991 or an unrelated selective CDK4/6 inhibitor, 2BrIC. 2BrIC was synthesized by OTAVA Chemicals (Kiev, Ukraine) and can be prepared according to methods described in Zhu et al., J. Med. Chem. 46, 2027-2030 (2003).
Cohorts of wild type mice were treated with vehicle or a CDK4/6 inhibitor as in FIG. 11. […] Unstimulated mice were treated for 24 hours with PD0332991 and homeostatic B cell proliferation measured by Ki67 staining after appropriate sorting. Similar results were obtained using BrdU incorporation to measure splenic B cell proliferation. Similar experiments were undertaken in human cells with B cell receptor stimulation as described in FIG. 12.

[3] = test system: RB-deficient small cell lung cancer cell lines (H69, H82, H209, H345); assay: SCLC cell proliferation, WST-1, RB-deficient lines; format: cell-based; details: 100 nM, all four RB-deficient cell lines
Experimental: FIG. 8: CDK4/6 inhibition potentiates proliferation of Rb deficient cells. […] Cell proliferation was assessed using WST-1 reagent. Each data point represents the mean of four replicates +/−SEM. CDK4/6 inhibition increases cell proliferation of RB-deficient cell lines.
Primary normal human renal proximal epithelial cells (American Type Culture Collection (ATCC), Manassas, Va., United States of America) were cultured in renal epithelial cell basal media supplemented with renal epithelial cell growth kit according to the manufacturer's recommendations. […] For the γH2AX assay, cells were fixed, permeabilized, and stained with anti-γH2AX as per γH2AX Flow Kit (Millipore, Billerica, Mass., United States of America). γH2AX levels were assessed by flow cytometry. Cell proliferation was assessed by seeding 1×10^3 cells per well in a 96-well tissue culture plate in 100 μL of growth medium. […] At the end of the recovery period, cell number was quantified using CellTiter-Glo® (Promega, Fitchburg, Wis., United States of America) or WST-1 reagent (TaKaRa Bio USA, Madison, Wis., United States of America). Cellular cytotoxicity was assessed using the TOXILIGHT™ Bioassay kit (Lonza, Basel, Switzerland) which measures cytolysis by quantifying the release of Adenylate Kinase into the culture media. […] 100 μL of TOXILIGHT™ reagent is added and incubated for 5 minutes and read in a luminometer at 1 second/well. […]

Compound: CC(=O)c1c(C)c2cnc(Nc3ccc(N4CCNCC4)cn3)nc2n(C2CCCC2)c1=O [PD0332991, 6-acetyl-8-cyclopentyl-5-methyl-2-(5-piperazin-1-yl-pyridin-2-ylamino)-8H-pyrido-[2,3-d]-pyrimidin-7-one]
- tumor growth at day 21 [1]: no effect on tumor growth
- germinal center formation (Ki67) [2]: selectively suppresses germinal center formation
- cell proliferation (WST-1) vs DMSO [3]: increased
